Measured values as given in patent US11524045B2, “Peptides for dry eye disease” (ALLYSTA PHARMACEUTICALS, INC., priority 2017, dated 2022).
Entries after “also recorded” stand apart in the source; their conditions may differ.

Key:
Format in all cases: in vivo, C57BL/6 mice
[1] = test system: desiccating stress-induced dry eye (experimental dry eye; EDE); assay: Tear film break-up time (TBUT) in mouse model of desiccating stress-induced dry eye; conditions: EDE mice, 5% Lifitegrast or 0.1% SEQ ID NO:1, 2 μL eye drops three times a day, five and 10-day endpoints, vs untreated dry eye (vehicle)
Protocol: (§1) The following Methods were used to evaluate the efficacy, anti-inflammatory activity and the therapeutic potential of a peptide inhibitor of trans-endothelial migration peptide compared with 5% Lifitegrast in a mouse model of desiccating stress-induced dry eye (experimental dry eye; EDE).
(§2) Desiccating stress was induced in six to eight-week-old female C57BL/6 mice by subcutaneous injection of 0.5 mg/0.2 mL scopolamine hydrobromide (Sigma-Aldrich, St. Louis, Mo.) three times a day ([…] given at 4.5 hr. intervals) with exposure to an air draft and 30% ambient humidity), which was maintained throughout the dosing period. During these experiments, the animals' behavior, food, and water intake were not restricted. Treatment was terminated and testing was conducted at endpoints of either five or ten days.
Each treatment group comprised 5 animals (n=10 eyes/group) randomly assigned. The groups were treated topically as follows: • 1. Untreated (Normal) control mice that were not exposed to desiccating stress or treated topically • 2. EDE mice treated with balanced salt solution (BSS, vehicle, Alcon, Fort Worth, Tex.) • 3. EDE mice treated with 5% (wt) Lifitegrast (Shire Plc) • 4. […]
All treatment groups received 2 μL eye drops three times a day. The mice in each treatment group: EDE treated with BSS, EDE treated with 5% Lifitegrast, and EDE treated with 0.1% SEQ ID NO:1 were dosed/treated three times/day with 2 uL eye drops of each treatment, respectively (except Normal group). […]
After three blinks, tear film break-up time (BUT) was recorded in seconds using slit lamp biomicroscopy (BQ-900; Haag-Streit, Bern, Switzerland) under cobalt blue light. […]
Tear Film Break-up: This experiment evaluated the anti-inflammatory activity and efficacy of the peptide inhibitor of trans-endothelial migration peptide in ameliorating Desiccation-induced Dry Eye (DED). Eyes were evaluated for time for dry spots to appear on the corneal surface of the eye after blinking. […] Subjects with normal tear quantity but an unstable tear film can explain dry eye symptoms. […]

[2] = test system: desiccating stress-induced dry eye (experimental dry eye; EDE); assay: Corneal fluorescein staining in mouse model of desiccating stress-induced dry eye; conditions: EDE mice; 5% Lifitegrast or 0.1% SEQ ID NO:1, 2 μL eye drops three times a day; five and ten days; vs untreated dry eyes
Protocol: as §1, §2
Each treatment group comprised 5 animals (n=10 eyes/group) randomly assigned. […]
Ninety seconds after the fluorescein drops were added to measure TBUT, punctate staining on the corneal surface was evaluated in a masked fashion. Each cornea was divided into four quadrants that were scored individually. Corneal fluorescein staining severity score was calculated using a 4-point scale: 0=absent; 1=slightly punctate staining <30 spots; 2=punctate staining >30 spots, but not diffuse; 3=severe diffuse staining but no positive plaque; and 4=positive fluorescein plaque. […]

[3] = test system: CD4+ and CCR5+ T cells from the conjunctiva; assay: Flow cytometry of activated T cells from the conjunctiva in murine dry eye model; conditions: EDE mice; 0.1% SEQ ID NO:1 eye drops three times a day; after 10 days; normal range 15% to 22%, normal control 18.86%
Protocol: as §1, §2
Each treatment group comprised 5 animals (n=10 eyes/group) randomly assigned. The groups were treated topically as follows: • 1. […]
Flow cytometry was performed for quantitation of CD4+ and CCR5+ T cells from the conjunctiva as previously described (Yoon K C, Heo H, Kang I S, et al. Cornea (2008) 27: 454-460). […]
The number of CD4+ and CCR5+ T cells was counted by a FACSCalibur cytometer with CellQuest software (BD Biosciences).
Eye conjunctiva was evaluated for the number of Activated T cells present in the conjunctiva for each group in the murine Dry Eye study. […]

Molecule | tear film break-up time [1] | corneal fluorescein staining grade (corneal disruptions) [2] | tear film break-up time ([1]; listed as peptide inhibitor of trans-endothelial migration peptide) | percentage of Activated T Cells within the conjunctiva [3] [%]
CS(=O)(=O)c1cccc(C[C@H](NC(=O)c2c(Cl)cc3c(c2Cl)CCN(C(=O)c2ccc4ccoc4c2)C3)C(=O)O)c1 [Lifitegrast, reference compound] | can ameliorate induced dry eye; also recorded: can ameliorate DED | improved corneal disruptions |  | 
H-Ser-Val-Thr-Glu-Gln-Gly-Ala-Glu-Leu-Ser-Asn-Glu-Glu-Arg-NH2 (H-SVTEQGAELSNEER-NH2) [SEQ ID NO:1] | noticeably improved tear film times at both endpoints | improved corneal disruptions | noticeably improved tear film times at both intervals | 21.67
